The text on data set [1]: Then, the present inventors attempted at a systematic classification of compounds which could contribute to the percutaneous absorption of molsidomine and performed a series of experiments.
For data set [2] the following is noted: cited from earlier work.
Data set [3] is classed as in vivo, male SD-JCL rats. The note with it: rat. How it is done:
Five male SD-JCL rats with a mean body weight of 250 g were anesthetized with pentobarbital and the abdominal hairs were clipped with an electric clipper (20 cm^2 5×4 cm). Each of coating samples A though D was then coated on the clipped area. At 1, 2, 4 and 6 hours after application (till 8 hours for evaluation of sustained effect), 0.5 ml of venous blood was collected from the tail vain of each rat and the plasma concentration of molsidomine was determined by the following procedure.
In a mixture of 20 mg of lauric acid, which is a percutaneous absorption promotor according to this invention, and 177 mg of propylene glycol was dissolved 3 mg of clonidine to prepare a coating sample. Using this sample, a percutaneous absorption test was conducted in the same manner as Example 1. The plasma concentration of clonidine was determined by the following procedure.
The venous blood was centrifuged and the plasma was separated. A 0.2 ml of the plasma was extracted with 1 ml of 0.01 N NaOH and 5 ml of chloroform, and from 4 ml of the chloroform layer, the chloroform was evaporated. The residue was dissolved in 0.2 ml of a mixture of 0.05 M sodium acetate, acetonitrile and tetrahydrofuran (70:30:0.2, v/v), and 50 μl of this solution was subjected to liquid chromatography to determine the clonidine concentration. A column of μ-Bondapak C18 was employed. The evaluation of percutaneous absorption was carried out in the same manner as described in Example 1. […] Similar tests were conducted using oleic acid, lauryl alcohol, oleinamide and laurylamine as well but all of them were ineffective for clonidine as […].

We go through twelve compounds from patent US4731241A, “Percutaneous pharmaceuticals preparation for external use” (priority 1983, dated 1988).

Molecules are shown by their SMILES. Where two headings read alike, the source gives them in different places.

`OCC(O)CO` [glycerin]: the “promotion of percutaneous absorption of molsidomine” value (“promotion” below) in data set [1] (added to molsidomine) is listed as “none of them proved meaningfully effective”.

Take `CCOC(=O)[N-]c1cn(N2CCOCC2)n[o+]1` [molsidomine, N-ethoxycarbonyl-3-morpholinosydnonimine]: in data set [2] (background), the side effects result is recorded as “few side effects” and the vasodilator activity result is reported as “excellent vasodilator activity”. For the same compound, in data set [2] (percutaneous route, alone), the “percutaneous absorption of molsidomine administered alone” value is on record as “not well absorbed”.

In the case of `OC[C@@H](O)[C@@H](O)[C@H](O)[C@@H](O)CO` [sorbitol], the “promotion” value in data set [1] was “none of them proved meaningfully effective”.

For `O=C(O)c1ccccc1O` [salicylic acid], the “promotion” value in data set [1] (added to molsidomine) is recorded as “none of them proved meaningfully effective”. Turning to `CCCCCCCCCCCCN` [laurylamine], the “effectiveness as percutaneous absorption promoter for clonidine” value (shortened to “effectiveness”) in data set [3] (percutaneous, clonidine) was “ineffective”.

`CCCCCCCCCCCC(=O)O` [lauric acid]: in data set [3] (percutaneous, clonidine), the “effectiveness” value was “not effective”. Take `Clc1cccc(Cl)c1N=C1NCCN1` [clonidine]: the “clonidine detection in the blood” value in data set [3] (3 mg clonidine, 20 mg lauric acid, 177 mg propylene glycol, percutaneous) is given as “not detected”. For `CCCCCCCC/C=C\CCCCCCCC(=O)O` [oleic acid], in data set [3] (in vivo), the “effectiveness” value is on record as “ineffective”. With `CCCCCCCCCCCCO` [lauryl alcohol], in data set [3] (percutaneous, clonidine), the “effectiveness” value is recorded as “ineffective”. Regarding `COC(=O)c1ccccc1O` [methyl salicylate], in data set [1], the “promotion” value is on record as “none of them proved meaningfully effective”. With `CCCCCCCC/C=C\CCCCCCCC(N)=O` [oleinamide], the “effectiveness” value in data set [3] (percutaneous, clonidine) is given as “ineffective”.

For `CC(O)CO` (centres unmarked) [propylene glycol], the “promotion” value in data set [1] (added to molsidomine) was “none of them proved meaningfully effective”.
